Results as given in patent US12473295B2, “Substituted straight chain spiro derivatives” (Janssen Pharmaceutica NV, priority 2019, dated 2025).
Where a name gives a salt, the structure may show the parent alone. Read-outs that look alike come from different tables or passages of the source.

How the values were obtained:
[1] = Metabolic stability in human liver microsomes; assay type: in vitro ADME; details: human liver microsomes 0.5 mg/mL, 1 μM test compound, pH 7.4; for microsomal CLint at 1 μM: read-out: Human LM Clint
Procedure: (§1) 4) Metabolic Stability in Human/Mouse Liver Microsomes
(§2) The objective of this study is to measure in vitro metabolic stability of test compound(s) in human and mouse liver microsomes and provide quantitative information on the rate of metabolic turnover (i.e. determination of the apparent intrinsic clearance of test).
(§3) Test items were prepared at a stock concentration of 10 mM in DMSO. For determination of metabolic turnover, a final working solution was prepared by adding 2 μL of 10 mM DMSO stock solution for test compound or positive control compounds to 198 μL of acetonitrile (100 μM final concentration).
(§4) Incubations were performed as follows: First, liver microsomes were thawed on ice and a master solution containing liver microsomes in 100 mM PBS (phosphate-buffered saline) at pH 7.4 is prepared. Next, the liver microsomes solution was added to the incubation plates and 10 mM NADPH (Nicotinamide-adenine dinucleotide phosphate) was added (MW: 833.4 g/mol; Roche Diagnostics GmbH, Germany. Dissolved in phosphate buffer (100 mmol/L, pH 7.4)). The mixture was mixed for 10 seconds and pre-warmed in the incubation plate at 37° C. for 10 minutes. The metabolic reaction was initiated with the addition of 5 μL of the 100 μM working solution for test compound or positive control compounds to incubation plate (final test item concentration=1 μM). The reaction final mixture should contain 1 mM NADPH, 0.5 mg/mL microsomes protein and 1 μM test compound or positive control compound in 100 mM PBS at pH 7.4. The percentage of organic solvent in incubation mixture is 1% with DMSO ≤0.02%.
(§5) The reaction was quenched by transferring 50 μL of the incubated mixture at selected time points into the quenching plate containing 200 μL of cold methanol. After sampling of all the timepoints the quenching plate was centrifuged at 4000 rpm for 40 minutes to precipitate protein. A total of 90 μL of the supernatant was transferred to an analysis plate and ultra-pure H2O water is added into each well for LC/MS/MS analysis. All incubations and analysis were performed in duplicate.
(§6) All calculations were carried out using Microsoft Excel. The slope value, k, was determined by linear regression of the natural logarithm of the remaining percentage of the parent drug vs. incubation time curve.
(§7) The in vitro half-life (in vitro tin) was determined from the slope value: in vitro t1/2=−(0.693/k)
(§8) Conversion of the in vitro tin (in min) into the in vitro intrinsic clearance (in vitro CLint, in μL/min/mg proteins) was done using the following equation: […]

OCI-AML3 cells = assay: Proliferation assay (spheroid growth, 8 days), OCI-AML3; assay type: cell-based, human; details: OCI-AML3, 8 days
Method in brief: (§9)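 Cells were seeded at 200 (MOLM14, OCI-AML3) or 300 (KO-52) per well in ultra-low attachment round-bottom plates with compounds at several concentrations, 0.3% DMSO, and grown 8 days at 37° C. Spheroid confluence was imaged on day 8; IC50 came from a variable-slope fit normalized to DMSO and high-dose reference compound.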

hERG potassium channel = hERG potassium channel (Homo sapiens (Human), UniProt Q12809); assay: Effect on membrane potassium current IKr in hERG transfected CHO cells, Protocol 1 (QPatch); assay type: cell-based
Chain of hERG potassium channel (Q12809 whole entry): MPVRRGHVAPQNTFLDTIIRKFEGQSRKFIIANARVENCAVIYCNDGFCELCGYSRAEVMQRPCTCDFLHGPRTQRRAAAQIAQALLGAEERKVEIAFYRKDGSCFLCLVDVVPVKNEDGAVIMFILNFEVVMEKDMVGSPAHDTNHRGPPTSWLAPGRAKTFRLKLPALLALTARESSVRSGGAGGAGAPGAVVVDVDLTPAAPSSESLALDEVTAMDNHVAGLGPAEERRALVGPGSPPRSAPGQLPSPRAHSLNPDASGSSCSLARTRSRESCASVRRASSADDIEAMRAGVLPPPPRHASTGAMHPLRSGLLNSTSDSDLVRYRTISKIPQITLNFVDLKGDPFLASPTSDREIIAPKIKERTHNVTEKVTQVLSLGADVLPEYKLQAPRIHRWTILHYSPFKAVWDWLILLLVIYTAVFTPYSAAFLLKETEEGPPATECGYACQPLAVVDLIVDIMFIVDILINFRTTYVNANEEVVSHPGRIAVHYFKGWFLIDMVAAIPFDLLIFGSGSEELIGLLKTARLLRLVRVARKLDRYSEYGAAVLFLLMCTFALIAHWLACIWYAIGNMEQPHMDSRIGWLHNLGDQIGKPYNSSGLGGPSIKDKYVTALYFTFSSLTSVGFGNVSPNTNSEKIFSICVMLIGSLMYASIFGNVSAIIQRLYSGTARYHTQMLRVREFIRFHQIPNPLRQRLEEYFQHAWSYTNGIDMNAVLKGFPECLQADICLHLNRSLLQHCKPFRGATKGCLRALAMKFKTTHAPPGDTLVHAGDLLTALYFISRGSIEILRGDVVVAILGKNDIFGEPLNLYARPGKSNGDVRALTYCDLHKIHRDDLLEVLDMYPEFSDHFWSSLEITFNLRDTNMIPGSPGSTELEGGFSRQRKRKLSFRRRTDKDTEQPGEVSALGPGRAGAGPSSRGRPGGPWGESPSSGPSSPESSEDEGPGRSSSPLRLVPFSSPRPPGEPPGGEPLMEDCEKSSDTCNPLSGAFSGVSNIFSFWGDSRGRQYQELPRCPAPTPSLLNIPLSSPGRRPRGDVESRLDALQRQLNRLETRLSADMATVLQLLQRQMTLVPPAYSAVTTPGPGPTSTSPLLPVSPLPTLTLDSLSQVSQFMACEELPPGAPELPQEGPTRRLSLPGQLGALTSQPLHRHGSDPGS
Procedure: 8) Effect on the Membrane Potassium Current IKr in hERG Transfected Cell Lines
• CHO Chinese hamster ovary cell line • DMSO Dimethylsulfoxide • hERG human ether-á-go-go-related gene • IKr rapidly activating delayed-rectifier K^+ current Methods
Experiments were performed using CHO cells stably expressing the hERG potassium channel. Cells were grown at 37° C. and 5% CO2 in culture flasks in Ham's F12 Medium supplemented with 10% heat-inactivated fetal calf serum, hygromycin B (100 μg/ml) and geneticin (100 μg/ml). For use in the automated patch-clamp system QPatch (Sophion) cells were harvested to obtain cell suspension of single cells.
Solutions: The bath solution contained (in mM) 145 NaCl, 4 KCl, 10 glucose, 10 HEPES ((4-(2-hydroxyethyl)-1-piperazineethanesulfonic acid), 2 CaCl2 and 1 MgCl2 (pH 7.4 with NaOH). The pipette solution contained (in mM) 120 KCl, 10 EGTA (Ethylene glycol-bis(2-aminoethylether)-N,N,N′,N′-tetraacetic acid), 10 HEPES, 5.374 CaCl2 and 1.75 MgCl2 (pH 7.2 with KOH).
Patch-clamp experiments were performed in the voltage-clamp mode and whole-cell currents were recorded with an automated patch-clamp assay utilizing the QPatch system (Sophion). Current signals were amplified and digitized, stored and analyzed by using the QPatch assay software.
The holding potential was −80 mV. The hERG current (K^+-selective outward current) was determined as the maximal tail current at −40 mV after a 2 second depolarization to +60 mV. Pulse cycling rate was 15 s. A short pulse (90 ms) to −40 mV served as a baseline step to calculate the tail current amplitude. After establishing whole-cell configuration and a stability period, the solvent control (0.3% DMSO) was applied for 5 minutes followed by the test substance by four increasing concentrations of 3×10^−7 M, 3×10^−6 M, 10^−5 M and 3×10^−5 M. Each concentration of the test substance was applied twice. The effect of each concentration was determined after 5 min as an average current of 3 sequential voltage pulses. To determine the extent of block the residual current was compared with vehicle pre-treatment.
Concentration/response relations were calculated by non-linear least-squares fits to the individual data points. The half-maximal inhibiting concentration (IC50) was calculated by the fitting routine.

[2] = target: menin/MLL (terbium chelate-labeled menin, FITC-MBM1 peptide) (Homo sapiens (Human), UniProt O00255); assay: Menin/MLL homogenous time-resolved fluorescence (HTRF) assay; assay type: binding;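 also: IC50 from percent inhibition of HTRF signal, normalized between wells without competitor and wells with a saturating competitor that displaces FITC-MBM1 from His-tagged menin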
Chain of menin/MLL (terbium chelate-labeled menin, FITC-MBM1 peptide) (O00255 other isoform, or with tags, fused parts or gaps): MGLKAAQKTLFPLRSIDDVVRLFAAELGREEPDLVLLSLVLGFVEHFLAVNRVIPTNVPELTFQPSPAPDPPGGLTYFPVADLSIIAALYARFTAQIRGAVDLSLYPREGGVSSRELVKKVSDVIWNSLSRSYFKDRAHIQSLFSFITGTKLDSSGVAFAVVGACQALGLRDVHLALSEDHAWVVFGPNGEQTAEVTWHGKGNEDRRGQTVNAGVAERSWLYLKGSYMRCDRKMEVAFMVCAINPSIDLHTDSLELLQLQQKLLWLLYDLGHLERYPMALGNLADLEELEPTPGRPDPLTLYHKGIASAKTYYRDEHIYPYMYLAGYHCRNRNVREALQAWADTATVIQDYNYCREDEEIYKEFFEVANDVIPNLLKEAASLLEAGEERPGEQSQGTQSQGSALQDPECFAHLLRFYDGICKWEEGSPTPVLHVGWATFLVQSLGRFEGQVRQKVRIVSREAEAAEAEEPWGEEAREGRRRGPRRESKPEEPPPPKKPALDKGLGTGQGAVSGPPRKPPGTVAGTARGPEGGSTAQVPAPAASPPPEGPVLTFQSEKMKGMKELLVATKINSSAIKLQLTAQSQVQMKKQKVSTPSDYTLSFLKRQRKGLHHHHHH

MEIS1 mRNA = MEIS1 mRNA expression assay (Quantigene Singleplex) in MOLM14 cells; assay type: cell-based, human; details: 48 hours incubation;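 also: MEIS1 transcript levels read by probe hybridization and normalized to RPL28 mRNA, with IC50 fitted to fold changes across a rising compound concentration series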
MOLM14 cells = assay: Proliferation assay (spheroid growth, 8 days), MOLM14; assay type: cell-based, human; details: MOLM14, 8 days, read-out: spheroid assay_OneTime MOLM14 IC50;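 also: spheroid size read as confluence by live-cell imaging, compounds added at a range of concentrations with 0.3% DMSO, DMSO-treated wells = 0%, highest reference dose = low control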
[3] = Metabolic stability in mouse liver microsomes; assay type: in vitro ADME; details: mouse liver microsomes 0.5 mg/mL, 1 μM test compound, pH 7.4; for microsomal CLint at 1 μM: read-out: Mouse LM Clint
Procedure: as §1, §2, §3, §4, §5, §6, §7, §8

KO-52 cells = assay: Proliferation assay (spheroid growth, 8 days), KO-52 control cell line; assay type: cell-based, human; details: read-out: spheroid assay_OneTime KO-52 IC50
Method in brief: as §9

[4] = Mouse PK (in vivo T1/2 and oral bioavailability); details: fasted male CD-1 mice, formulating agent HP-β-CD; for half-life: single IV 0.5 or 1.0 mg/kg; for bioavailability: single PO 5 mg/kg
Procedure: 3) Mouse PK (In Vivo T1/2 and Oral Bioavailability)
In vivo pharmacokinetics (PK) were assessed in fasted male CD-1 mice (age 6-8 weeks) following a single intravenous (IV, 0.5 or 1.0 mg/kg administered at 2.5 ml/kg) or oral (PO, 5 mg/kg administered at 10 ml solution/kg) dose of test article formulated in a 20% (w:vol) HP-β-CD solution or in Pyrogen free water.
Plasma and/or whole blood samples were collected from the dorsal metatarsal vein at desired timepoints via serial capillary microsampling (approx. 0.03 mL) using EDTA as an anticoagulant. Concentrations of compound in the plasma and blood samples were analyzed using a qualified LC-MS/MS method. In silico analysis of main pharmacokinetic parameters was performed using WinNonlin (Phoenix™, version 6.1) or similar software. (Results see Table 4)

[5] = read-out: HTRF-30 min incubation IC50, 30 min incubation
[6] = HTRF-30 min incubation IC50, 30 min incubation

microsomal CLint at 1 μM [1] [µL/min/mg] | IC50 (OCI-AML3 cells; Homo sapiens, OCI-AML-3, […]) [nM] | IC50 (MEIS1 mRNA; Homo sapiens, MOLM-14, 48 h) [nM] | IC50 (MOLM14 cells; Homo sapiens, MOLM-14, […]) [nM] | microsomal CLint at 1 μM [3] [µL/min/mg] | half-life [4] [h] | bioavailability [4] [%] | IC50 [2, 6] [nM] | SMILES | IC50 (hERG potassium channel) [nM] | IC50 (KO-52 cells; Homo sapiens, […]) [nM] | further results
– | – | – | – | – | – | – | – | CNC(=O)CC[C@@H](C(C)C)N1CC2(CCN(c3ncnnc3Oc3ccc(F)cc3-c3cncnc3C3CC3)C2)C1 (single isomer, unassigned) [Compound 45, (*S)-4-(6-(6-(2-(4-cyclopropylpyrimidin-5-yl)-4-fluorophenoxy)-1,2,4-triazin-5-yl)-2,6-diazaspiro[3.4]octan-2-yl)-N,5-dimethylhexanamide] | 12600 | – | Human LM Clint [1]: 43 µL/min/mg; IC50 (OCI-AML3 cells): 1250 nM; IC50 [2, 5]: 0.37 nM; IC50 (MEIS1 mRNA): 210 nM; IC50 (MOLM14 cells): 220 nM; Mouse LM Clint [3]: 110 µL/min/mg; IC50 (KO-52 cells): > 15000 nM
539 | 420 | 92 | 170 | > 1000 | – | – | – | CCN(C(=O)c1cc(F)ccc1Oc1nnccc1N1CCC2(C1)CN([C@H](CCCN(C)CCOC)C(C)C)C2)C(C)C (single isomer, unassigned) [Compound 83] | 6000 | 6240 | –
– | 110 | 33 | 16 | – | 11 | 9.7 | 0.11 | CC(C)[C@@H](CCCN(C)C)N1CC2(CCN(c3ncnnc3Oc3ccc(F)cc3C(=O)N(C(C)C)C(C)C)C2)C1 (single isomer, unassigned) [Compound 102, (*R)-2-((5(2-(6-(dimethylamino)-2-methylhexan-3-yl)-2,6-diazaspiro[3.4]octan-6-yl)-1,2,4-triazin-6-yl)oxy)-5-fluoro-N,N-diisopropylbenzamide fumarate] | – | > 15000 | –
– | – | – | – | – | – | – | – | CCN(C(=O)c1cc(F)ccc1Oc1nncnc1N1CCC2(C1)CN([C@H](CCO)C(C)C)C2)C(C)C (single isomer, unassigned) [Compound 214, (*R)—N-ethyl-5-fluoro-2-((5-(2-(1-hydroxy-4-methylpentan-3-yl)-2,6-diazaspiro[3.4]octan-6-yl)-1,2,4-triazin-6-yl)oxy)-N-isopropylbenzamide] | – | – | Human LM Clint [1]: 44 µL/min/mg; IC50 (OCI-AML3 cells): 380 nM; IC50 [2, 5]: 0.49 nM; IC50 (MEIS1 mRNA): 140 nM; IC50 (MOLM14 cells): 120 nM; Mouse LM Clint [3]: 80 µL/min/mg; IC50 (KO-52 cells): > 15000 nM
35 | 1860 | 360 | 480 | 28 | – | – | 0.61 | CCN(C(=O)c1cc(F)ccc1Oc1nncnc1N1CCC2(C1)CN([C@H](CCCNC(C)=O)C(C)C)C2)C(C)C [Compound 6, (R)-2-((5(2-(6-acetamido-2-methylhexan-3-yl)-2,6-diazaspiro[3.4]octan-6-yl)-1,2,4-triazin-6-yl)oxy)-N-ethyl-5-fluoro-N-isopropylbenzamide formate] | – | > 15000 | –
– | – | – | – | – | 6.2 | 4 | – | CCN(C(=O)c1cc(F)ccc1Oc1nncnc1N1CCC2(C1)CN([C@H](CCCN[C@H](C)COC)C(C)C)C2)C(C)C.O=C(O)/C=C/C(=O)O [Compound 112] | – | – | –
– | – | – | – | – | 9.5 | 8.7 | – | CCN(C(=O)c1cc(F)ccc1Oc1nncnc1N1CCC2(C1)CN([C@H](CCCNCCC(F)F)C(C)C)C2)C(C)C.O=C(O)/C=C/C(=O)O [Compound 114] | – | – | –
70 | 55 | 41 | 16 | 55 | – | – | 0.23 | CCN(C(=O)c1cc(F)ccc1Oc1nncnc1N1CCC2(C1)CN([C@H](CCCN(C)C(COC)COC)C(C)C)C2)C(C)C [Compound 161, (R)-2-((5-(2-(6-((1,3-dimethoxypropan-2-yl)(methyl)amino)-2-methylhexan-3-yl)-2,6-diazaspiro[3.4]octan-6-yl)-1,2,4-triazin-6-yl)oxy)-N-ethyl-5-fluoro-N-isopropylbenzamide fumarate] | – | > 15000 | –
– | 740 | 26 | 27 | – | – | – | 0.33 | CCOCCN(C)CCC[C@H](C(C)C)N1CC2(CCN(c3ncnnc3Oc3ccc(F)cc3C(=O)N(CC)C(C)C)C2)C1 [Compound 258, (R)-2-((5-(2-(6-((2-ethoxyethyl)(methyl)amino)-2-methylhexan-3-yl)-2,6-diazaspiro[3.4]octan-6-yl)-1,2,4-triazin-6-yl)oxy)-N-ethyl-5-fluoro-N-isopropylbenzamide oxalate] | > 30200 | 5440 | –
– | – | – | 15 | < 7.5 | – | – | – | CCN(C(=O)c1cc(F)ccc1Oc1nncnc1N1CCC2(C1)CN([C@H](CCCNCCOC)C(C)C)C2)C(C)C [Compound 397, (R)-N-ethyl-5-fluoro-N-isopropyl-2-((5-(2-(6-((2-methoxyethyl)amino)-2-methylhexan-3-yl)-2,6-diazaspiro[3.4]octan-6-yl)-1,2,4-triazin-6-yl)oxy)benzamide fumarate] | – | > 15000 | IC50 (OCI-AML3 cells; fumarate): 27 nM
